Results published in ChEMBL document CHEMBL5335775, “Bioisosteric replacement of 1H-1,2,3-triazole with 1H-tetrazole ring enhances anti-leukemic activity of (5-benzylthiazol-2-yl)benzamides” (Eur J Med Chem, 2023).
Calls of active or inactive are those of the source. The calls are words filed in the database; no cut-off is given here.

Assays:
K562 [1] = test: Anticancer activity against human K562 cells assessed as cell growth at 10^-5 M incubated for 48 hrs by SRB assay relative to control; type: functional; settings: K562, 48 h, dose 1 10^-5M, read-out: Activity
NCI-H460 [2] = test: Anticancer activity against human NCI-H460 cells assessed as cell growth at 10^-5 M incubated for 48 hrs by SRB assay relative to control; type: functional; settings: NCI-H460, 48 h, dose 1 10^-5M, read-out: Activity
LOX IMVI [3] = test: Anticancer activity against human LOX IMVI cells assessed as cell growth at 10^-5 M incubated for 48 hrs by SRB assay relative to control; type: functional; settings: dose 1 10^-5M, read-out: Activity
M14 [4] = test: Anticancer activity against human M14 cells assessed as cell growth at 10^-5 M incubated for 48 hrs by SRB assay relative to control; type: functional; settings: M14, 48 h, dose 1 10^-5M, read-out: Activity
UACC-62 [5] = test: Anticancer activity against human UACC-62 cells assessed as cell growth at 10^-5 M incubated for 48 hrs by SRB assay relative to control; type: functional; settings: UACC-62, 48 h, dose 1 10^-5M, read-out: Activity
MCF7 = test: Anticancer activity against human MCF7 cells assessed as cell growth at 10^-5 M incubated for 48 hrs by SRB assay relative to control; type: functional; settings: MCF7, 48 h, dose 1 10^-5M, read-out: Activity
NCI-H522 = test: Anticancer activity against human NCI-H522 cells assessed as cell growth at 10^-5 M incubated for 48 hrs by SRB assay relative to control; type: functional; settings: NCI-H522, 48 h, dose 1 10^-5M, read-out: Activity
SF-295 = test: Anticancer activity against human SF-295 cells assessed as cell growth at 10^-5 M incubated for 48 hrs by SRB assay relative to control; type: functional; settings: SF-295, 48 h, dose 1 10^-5M, read-out: Activity
SK-MEL-5 = test: Anticancer activity against human SK-MEL-5 cells assessed as cell growth at 10^-5 M incubated for 48 hrs by SRB assay relative to control; type: functional; settings: SK-MEL-5, 48 h, dose 1 10^-5M, read-out: Activity
UACC-257 = test: Anticancer activity against human UACC-257 cells assessed as cell growth at 10^-5 M incubated for 48 hrs by SRB assay relative to control; type: functional; settings: UACC-257, 48 h, dose 1 10^-5M, read-out: Activity
T47D [6] = test: Anticancer activity against human T47D cells assessed as cell growth at 10^-5 M incubated for 48 hrs by SRB assay relative to control; type: functional; settings: dose 1 10^-5M, read-out: Activity
K562 [7] = test: Antiproliferative activity against human K562 cells assessed as inhibition of cell proliferation measured after 72 hrs by MTT assay; type: functional, cell-based; settings: K562, 72 h
[8] = Antiproliferative activity against human HaCaT cells assessed as inhibition of cell proliferation measured after 72 hrs by MTT assay; type: toxicity, cell-based
[9] = Antiproliferative activity against NIH3T3 cells assessed as inhibition of cell proliferation measured after 72 hrs by MTT assay; type: toxicity, cell-based; settings: mouse
[10] = Antiproliferative activity against J774.2 cells assessed as inhibition of cell proliferation measured after 72 hrs by MTT assay; type: toxicity, cell-based; settings: mouse
[11] = Selectivity index, ratio of IC50 for […] to IC50 for human K562 cells; type: functional
K562 [12] = test: Inhibition of cell growth in human K562 cells incubated for 48 hrs by SRB assay; type: functional, cell-based; settings: K562, 48 h
NCI-H460 [13] = test: Inhibition of cell growth in human NCI-H460 cells incubated for 48 hrs by SRB assay; type: functional, cell-based; settings: NCI-H460, 48 h
HCT-15 = test: Inhibition of cell growth in human HCT-15 cells incubated for 48 hrs by SRB assay; type: functional, cell-based; settings: HCT-15, 48 h
KM12 = test: Inhibition of cell growth in human KM12 cells incubated for 48 hrs by SRB assay; type: functional, cell-based; settings: KM12, 48 h
SW-620 = test: Inhibition of cell growth in human SW-620 cells incubated for 48 hrs by SRB assay; type: functional, cell-based; settings: SW-620, 48 h
LOX IMVI [14] = test: Inhibition of cell growth in human LOX IMVI cells incubated for 48 hrs by SRB assay; type: functional, cell-based
M14 [15] = test: Inhibition of cell growth in human M14 cells incubated for 48 hrs by SRB assay; type: functional, cell-based; settings: M14, 48 h
UACC-62 [16] = test: Inhibition of cell growth in human UACC-62 cells incubated for 48 hrs by SRB assay; type: functional, cell-based; settings: UACC-62, 48 h
CAKI-1 [17] = test: Inhibition of cell growth in human CAKI-1 cells incubated for 48 hrs by SRB assay; type: functional, cell-based; settings: CAKI-1, 48 h
T47D [18] = test: Inhibition of cell growth in human T47D cells incubated for 48 hrs by SRB assay; type: functional, cell-based
K562 [19] = test: Induction of DNA damage in human K562 cells assessed as tail DNA level at 70 nM incubated for 24 hrs by comet assay (reference value: 0.5 to 0.6 %); type: functional
K562 [20] = test: Induction of DNA damage in human K562 cells assessed as tail DNA level at 700 nM incubated for 24 hrs by comet assay (reference value: 0.5 to 0.6 %); type: functional
K562 [21] = test: Induction of DNA damage in human K562 cells assessed as olive tail moment level at 70 nM incubated for 24 hrs by comet assay (reference value: 0.2); type: functional
K562 [22] = test: Induction of DNA damage in human K562 cells assessed as olive tail moment level at 700 nM incubated for 24 hrs by comet assay (reference value: 0.2); type: functional
K562 [23] = test: Induction of DNA damage in human K562 cells assessed as fold increase in tail DNA level at 70 to 700 nM incubated for 24 hrs by comet assay relative to control; type: functional; settings: dose 70-700 nM
K562 [24] = test: Induction of DNA damage in human K562 cells assessed as fold increase in olive tail moment at 70 to 700 nM incubated for 24 hrs by comet assay relative to control; type: functional; settings: dose 70-700 nM
K562 [25] = test: Induction of pro-apoptotic morphological changes in human K562 cells assessed as cell shrinkage at 700 nM incubated for 24 hrs by Hoescht-33342 staining based analysis; type: functional
K562 [26] = test: Induction of pro-apoptotic morphological changes in human K562 cells assessed as nucleus fragmentation at 700 nM incubated for 24 hrs by Hoescht-33342 staining based analysis; type: functional, cell-based
K562 [27] = test: Induction of pro-apoptotic morphological changes in human K562 cells assessed as formation of cytoplasmic blebs at 700 nM incubated for 24 hrs by Hoescht-33342 staining based analysis; type: functional, cell-based
K562 [28] = test: Induction of pro-apoptotic morphological changes in human K562 cells assessed as formation of apoptotic bodies at 700 nM incubated for 24 hrs by Hoescht-33342 staining based analysis; type: functional, cell-based
K562 [29] = test: Induction of pro-apoptotic morphological changes in human K562 cells at 70 nM incubated for 24 hrs by Hoescht-33342 staining based analysis; type: functional, cell-based
CAKI-1 [30] = test: Anticancer activity against human CAKI-1 cells assessed as cell growth at 10^-5 M incubated for 48 hrs by SRB assay relative to control; type: functional; settings: CAKI-1, 48 h, dose 1 10^-5M, read-out: Activity
HCC 2998 = test: Anticancer activity against human HCC 2998 cells assessed as cell growth at 10^-5 M incubated for 48 hrs by SRB assay relative to control; type: functional; settings: HCC 2998, 48 h, dose 1 10^-5M, read-out: Activity

Compound | growth at 10 µM (K562 [1]) [%] | growth at 10 µM (NCI-H460 [2]) [%] | growth at 10 µM (LOX IMVI [3]) [%] | growth at 10 µM (M14 [4]) [%] | growth at 10 µM (UACC-62 [5]) [%] | growth at 10 µM (SF-295) [%] | growth at 10 µM (SK-MEL-5) [%] | IC50 (K562 [7]) [µM] | IC50 at 72 h [8] [µM] | IC50 at 72 h [9] [µM] | IC50 at 72 h [10] [µM] | Ratio IC50 [11] | IC50 (K562 [12]) [µM] | IC50 (HCT-15) [µM] | IC50 (SW-620) [µM] | IC50 (M14 [15]) [µM] | IC50 (UACC-62 [16]) [µM] | also measured
O=C(Nc1ncc(Cc2ccc(F)cc2)s1)c1ccc(-n2cnnn2)cc1 | 23.2 | 25.5 | 26.3 | 34.3 | 19.2 | 25.9 | 10.6 | 0.7 | > 100 | > 100 | 70.7 | 101 | 0.0564 | 0.347 | 0.118 | 0.261 | 0.0569 | growth at 10 µM (MCF7): 34.4%; growth at 10 µM (NCI-H522): 36.5%; growth at 10 µM (UACC-257): 32%; growth at 10 µM (T47D [6]): 23.2%; IC50 (NCI-H460 [13]): 0.993 µM; IC50 (KM12): 0.927 µM; IC50 (LOX IMVI [14]): 0.206 µM; IC50 (CAKI-1 [17]): 0.772 µM; IC50 (T47D [18]): 0.896 µM; Activity (K562 [19]): 1.1%; Activity (K562 [20]): 5.1%; Activity (K562 [21]): 0.5; Activity (K562 [22]): 1.4; fold change (FC) (K562 [23]): 2; fold change (FC) (K562 [24]): 2; Activity (K562 [25]): Active; Activity (K562 [26]): Active; Activity (K562 [27]): Active; Activity (K562 [28]): Active; Activity (K562 [29]): inactive
O=C(Nc1ncc(Cc2cc(Cl)ccc2Cl)s1)c1ccc(-n2cnnn2)cc1 | 22.8 | 33 | 22.6 | 24.6 | 8.26 | 30.9 | 22.4 | 7.57 | > 100 | > 100 | 34.7 | 4.6 | 0.577 | 0.894 | 0.508 | 0.696 | 0.364 | growth at 10 µM (CAKI-1 [30]): 29%; growth at 10 µM (HCC 2998): 22.7%
